From patent US10526316B2, “Quinoxaline and pyridopyrazine derivatives as PI3Kβ inhibitors” (Janssen Pharmaceutica NV, priority 2015, dated 2020)
Like-named read-outs stand apart in the source and are kept apart here.

Tests used:
PI3Kδ = target: T1, PI3Kδ (Homo sapiens, UniProt O00329); test: Enzyme binding assay (KINOMEscan, DiscoveRx); conditions: PIK3Cδ_h
T1 construct: purchased DiscoveRx Corporation, San Diego (contract service, KINOMEscan)
T1 sequence (O00329 1-1044): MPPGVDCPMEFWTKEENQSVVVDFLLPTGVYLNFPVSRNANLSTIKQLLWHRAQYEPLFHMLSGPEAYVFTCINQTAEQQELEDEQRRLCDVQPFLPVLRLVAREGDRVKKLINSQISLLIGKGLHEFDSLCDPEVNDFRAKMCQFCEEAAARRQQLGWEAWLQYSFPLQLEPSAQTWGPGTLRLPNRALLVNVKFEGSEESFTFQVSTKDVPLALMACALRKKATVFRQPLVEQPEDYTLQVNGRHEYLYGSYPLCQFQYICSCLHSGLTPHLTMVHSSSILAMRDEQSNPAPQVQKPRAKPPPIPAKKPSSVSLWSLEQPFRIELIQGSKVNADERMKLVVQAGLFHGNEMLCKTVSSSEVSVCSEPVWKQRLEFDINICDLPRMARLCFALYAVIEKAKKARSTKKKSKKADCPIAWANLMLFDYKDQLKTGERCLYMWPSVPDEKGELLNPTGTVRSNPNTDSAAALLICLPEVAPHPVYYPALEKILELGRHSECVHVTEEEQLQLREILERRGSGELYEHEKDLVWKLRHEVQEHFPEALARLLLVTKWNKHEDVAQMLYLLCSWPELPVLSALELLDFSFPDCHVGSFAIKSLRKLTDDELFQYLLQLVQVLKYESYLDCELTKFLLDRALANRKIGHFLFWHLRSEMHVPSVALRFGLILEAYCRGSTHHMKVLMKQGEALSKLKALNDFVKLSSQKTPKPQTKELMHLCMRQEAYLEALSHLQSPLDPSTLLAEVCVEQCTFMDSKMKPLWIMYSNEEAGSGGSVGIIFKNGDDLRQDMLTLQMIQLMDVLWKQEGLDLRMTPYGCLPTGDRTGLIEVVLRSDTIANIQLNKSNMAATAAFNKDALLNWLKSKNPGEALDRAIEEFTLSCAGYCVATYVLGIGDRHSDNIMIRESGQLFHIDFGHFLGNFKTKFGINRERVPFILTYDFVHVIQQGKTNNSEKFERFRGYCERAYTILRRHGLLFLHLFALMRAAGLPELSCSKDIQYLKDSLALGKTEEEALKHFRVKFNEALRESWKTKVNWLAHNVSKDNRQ
Method in brief: (§1)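 Kinase binding measured via KINOMEscan, reported as affinity.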

[1] = tested on: Akt phosphorylated at Ser473 in PC-3 cells; test: Cellular assay: phosphorylation of Akt at Ser473 in PC-3 cells (MSD ELISA); type: cell-based; conditions: PC-3 cells, 60 min compound incubation, MSD ELISA, read-out: IC50 pAkt_S473
Method in brief: (§2)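 Phospho-Akt in whole-cell lysates is quantified by electrochemiluminescent immunoassay using phospho-site capture and total-Akt detection antibodies.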

[2] = tested on: Akt phosphorylated at Thr308 in PC-3 cells; test: Cellular assay: phosphorylation of Akt at Thr308 in PC-3 cells (MSD ELISA); type: cell-based; conditions: PC-3 cells, 60 min compound incubation, MSD ELISA, read-out: IC50 pAkt_Thr308
Method in brief: as §2

PI3Kβ = target: T2, PI3Kβ (Homo sapiens, UniProt P42338); test: Enzyme binding assay (KINOMEscan, DiscoveRx); conditions: PIK3Cβ_h, read-out: Kd PIK3Cβ_h
T2 construct: purchased DiscoveRx Corporation, San Diego (contract service, KINOMEscan)
T2 sequence (P42338 whole entry): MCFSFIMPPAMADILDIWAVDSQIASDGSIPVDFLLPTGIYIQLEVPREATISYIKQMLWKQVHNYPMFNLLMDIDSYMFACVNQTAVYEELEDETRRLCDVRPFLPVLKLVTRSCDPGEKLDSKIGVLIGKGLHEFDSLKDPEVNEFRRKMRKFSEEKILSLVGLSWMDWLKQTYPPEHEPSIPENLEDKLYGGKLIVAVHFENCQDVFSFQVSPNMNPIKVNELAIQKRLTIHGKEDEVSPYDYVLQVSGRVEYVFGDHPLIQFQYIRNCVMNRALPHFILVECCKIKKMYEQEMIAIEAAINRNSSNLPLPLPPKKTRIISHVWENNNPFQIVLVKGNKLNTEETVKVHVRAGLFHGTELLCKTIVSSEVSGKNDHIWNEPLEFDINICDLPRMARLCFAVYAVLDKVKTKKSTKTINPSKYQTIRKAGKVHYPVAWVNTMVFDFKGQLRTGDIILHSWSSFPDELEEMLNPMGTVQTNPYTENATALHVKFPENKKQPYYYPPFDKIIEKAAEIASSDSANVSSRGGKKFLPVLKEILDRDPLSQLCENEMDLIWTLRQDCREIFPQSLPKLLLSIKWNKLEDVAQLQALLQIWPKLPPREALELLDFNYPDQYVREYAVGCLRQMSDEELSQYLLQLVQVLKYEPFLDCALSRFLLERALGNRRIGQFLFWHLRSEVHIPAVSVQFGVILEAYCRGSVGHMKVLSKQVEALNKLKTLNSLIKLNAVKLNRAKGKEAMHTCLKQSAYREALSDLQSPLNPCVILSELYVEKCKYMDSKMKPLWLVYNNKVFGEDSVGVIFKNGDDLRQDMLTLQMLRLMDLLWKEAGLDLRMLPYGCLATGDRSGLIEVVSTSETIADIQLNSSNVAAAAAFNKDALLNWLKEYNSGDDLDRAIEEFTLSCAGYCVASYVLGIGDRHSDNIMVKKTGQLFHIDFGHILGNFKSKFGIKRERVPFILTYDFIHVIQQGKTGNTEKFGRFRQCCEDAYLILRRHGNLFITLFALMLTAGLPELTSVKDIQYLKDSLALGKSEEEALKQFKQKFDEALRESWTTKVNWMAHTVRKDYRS
Method in brief: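 Reported Kd (nM) reflects inhibitor binding to the kinase, as measured by KINOMEscan technology.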

kinase enzymes [3] = target: T3, kinase enzymes (Homo sapiens, UniProt P48736); test: Enzyme binding assay (KINOMEscan, DiscoveRx), further kinases of Table A; conditions: PIK3Cγ_h
T3 construct: purchased DiscoveRx Corporation, San Diego (contract service, KINOMEscan)
T3 sequence (P48736 whole entry): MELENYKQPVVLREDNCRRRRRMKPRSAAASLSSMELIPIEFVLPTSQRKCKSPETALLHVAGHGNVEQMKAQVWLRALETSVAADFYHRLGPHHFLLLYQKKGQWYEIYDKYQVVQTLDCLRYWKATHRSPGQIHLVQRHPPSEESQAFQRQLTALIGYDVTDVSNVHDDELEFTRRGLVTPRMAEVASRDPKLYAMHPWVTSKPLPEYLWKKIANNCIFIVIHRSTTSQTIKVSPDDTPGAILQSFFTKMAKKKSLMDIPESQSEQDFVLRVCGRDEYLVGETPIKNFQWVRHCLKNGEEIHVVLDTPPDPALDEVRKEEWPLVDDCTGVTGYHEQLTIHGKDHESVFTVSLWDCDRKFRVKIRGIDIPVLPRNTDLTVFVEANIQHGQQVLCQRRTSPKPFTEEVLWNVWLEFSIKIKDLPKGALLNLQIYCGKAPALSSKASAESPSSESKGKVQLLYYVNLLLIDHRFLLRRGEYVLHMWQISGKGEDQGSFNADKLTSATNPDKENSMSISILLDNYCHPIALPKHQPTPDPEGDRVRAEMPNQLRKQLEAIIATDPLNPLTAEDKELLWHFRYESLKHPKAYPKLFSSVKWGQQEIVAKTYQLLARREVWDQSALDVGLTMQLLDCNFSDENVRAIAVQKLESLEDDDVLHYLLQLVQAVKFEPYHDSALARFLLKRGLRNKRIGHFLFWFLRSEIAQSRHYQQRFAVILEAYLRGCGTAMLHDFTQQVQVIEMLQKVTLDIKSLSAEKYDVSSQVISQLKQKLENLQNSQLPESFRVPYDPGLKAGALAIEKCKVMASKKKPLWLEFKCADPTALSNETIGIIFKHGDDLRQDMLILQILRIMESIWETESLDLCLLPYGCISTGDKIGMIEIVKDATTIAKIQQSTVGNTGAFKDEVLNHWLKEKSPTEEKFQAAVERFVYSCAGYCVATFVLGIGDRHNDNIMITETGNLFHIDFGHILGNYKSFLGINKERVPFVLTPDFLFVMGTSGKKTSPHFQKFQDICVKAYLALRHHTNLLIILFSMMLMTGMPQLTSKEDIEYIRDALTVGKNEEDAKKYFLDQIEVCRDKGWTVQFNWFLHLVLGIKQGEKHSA
Method in brief: as §1

kinase enzymes [4] = target: T4, kinase enzymes (Homo sapiens, UniProt P42336); test: as above; conditions: PIK3Cα_h
T4 construct: purchased DiscoveRx Corporation, San Diego (contract service, KINOMEscan)
T4 sequence (P42336 whole entry): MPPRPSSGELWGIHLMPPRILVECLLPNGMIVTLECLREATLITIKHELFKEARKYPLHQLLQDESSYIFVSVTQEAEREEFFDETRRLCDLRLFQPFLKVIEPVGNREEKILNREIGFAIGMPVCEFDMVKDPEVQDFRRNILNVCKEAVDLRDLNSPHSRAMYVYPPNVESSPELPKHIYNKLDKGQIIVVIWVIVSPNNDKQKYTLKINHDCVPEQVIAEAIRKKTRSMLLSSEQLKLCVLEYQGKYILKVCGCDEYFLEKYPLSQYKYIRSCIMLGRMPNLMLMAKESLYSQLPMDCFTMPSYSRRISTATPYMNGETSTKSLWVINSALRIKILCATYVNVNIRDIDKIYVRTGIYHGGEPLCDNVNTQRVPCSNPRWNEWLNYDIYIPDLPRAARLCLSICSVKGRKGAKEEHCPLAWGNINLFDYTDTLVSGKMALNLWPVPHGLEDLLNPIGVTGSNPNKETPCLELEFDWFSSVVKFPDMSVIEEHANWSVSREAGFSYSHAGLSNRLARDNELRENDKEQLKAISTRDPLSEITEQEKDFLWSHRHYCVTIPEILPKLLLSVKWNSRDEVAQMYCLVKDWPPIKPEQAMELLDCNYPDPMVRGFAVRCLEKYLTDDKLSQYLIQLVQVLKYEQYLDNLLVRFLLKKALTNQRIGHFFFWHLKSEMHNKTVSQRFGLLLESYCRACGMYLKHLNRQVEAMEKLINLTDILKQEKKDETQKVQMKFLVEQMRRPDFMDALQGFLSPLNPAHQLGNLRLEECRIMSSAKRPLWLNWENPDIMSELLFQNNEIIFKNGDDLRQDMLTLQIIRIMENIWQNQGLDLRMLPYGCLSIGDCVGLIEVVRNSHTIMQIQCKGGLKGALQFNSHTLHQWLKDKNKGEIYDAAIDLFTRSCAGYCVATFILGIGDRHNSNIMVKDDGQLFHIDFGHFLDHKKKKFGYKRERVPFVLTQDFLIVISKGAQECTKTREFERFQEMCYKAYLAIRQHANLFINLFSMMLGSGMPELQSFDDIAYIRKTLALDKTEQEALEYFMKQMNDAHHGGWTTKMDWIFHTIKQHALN
Method in brief: as §1

kinase enzymes [5] = target: T5, kinase enzymes (Homo sapiens, UniProt P42345); test: as above; conditions: MTOR_h
T5 construct: purchased DiscoveRx Corporation, San Diego (contract service, KINOMEscan)
Method in brief: as §1

SMILES: CNC(=O)c1cc(C2CCCN2c2cc(F)cc(F)c2)c2nc(N3CCOCC3)cnc2c1 (single isomer, unassigned) [Compound 40]
- Kd (PI3Kδ): 35 nM
- IC50 ([1]; Homo sapiens, PC-3, 1 h): 7 nM
- IC50 ([2]; Homo sapiens, PC-3, 1 h): 4 nM
- melting point: 80 °C
- Kd (PI3Kβ): 1 nM
- Kd (kinase enzymes [3]): 309 nM
- Kd (kinase enzymes [4]): 56 nM
- Kd (kinase enzymes [5]): 17400 nM

SMILES: O=C(NCCO)c1cc(C2CCCN2c2cc(F)cc(F)c2)c2nc(N3CCOCC3)cnc2c1 (centres unmarked) [Compound 71]
- Kd (PI3Kδ): 138 nM
- IC50 ([1]; Homo sapiens, PC-3, 1 h): ~15 nM
- IC50 ([2]; Homo sapiens, PC-3, 1 h): 13 nM
- melting point: 80 °C
- Kd (PI3Kβ): 1 nM
- Kd (kinase enzymes [3]): 794 nM
- Kd (kinase enzymes [4]): 251 nM
- Kd (kinase enzymes [5]): 22400 nM

SMILES: CNCCNC(=O)c1cc(C2CCCN2c2cc(F)cc(F)c2)c2nc(N3CCOCC3)cnc2c1 (single isomer, unassigned) [Compound 17]
- Kd (PI3Kδ): 3 nM
- IC50 ([1]; Homo sapiens, PC-3, 1 h): ~3 nM
- IC50 ([2]; Homo sapiens, PC-3, 1 h): 1 nM
- melting point: 170 °C
- Kd (PI3Kβ): 0.1 nM
- Kd (kinase enzymes [3]): 107 nM
- Kd (kinase enzymes [4]): 25 nM
- Kd (kinase enzymes [5]): 12300 nM

SMILES: CC(Nc1cc(F)cc(F)c1)c1cc(C(=O)N2CCOCC2)cc2ncc(N3CCOCC3)nc12 (single isomer, unassigned) [Compound 8]
- Kd (PI3Kδ): 109 nM
- IC50 [1]: 25 nM
- IC50 [2]: 20 nM
- melting point: 100 °C
- Kd (PI3Kβ): 1 nM
- Kd (kinase enzymes [3]): 3860 nM
- Kd (kinase enzymes [4]): 396 nM
- Kd (kinase enzymes [5]): 20900 nM

SMILES: CN1CCN(C(=O)c2cc(C3CCCN3c3cc(F)cc(F)c3)c3nc(N4CCOCC4)cnc3c2)CC1 (single isomer, unassigned) [Compound 57]
- Kd (PI3Kδ): 31 nM
- IC50 [1]: ~5 nM
- IC50 [2]: 4 nM
- melting point: 80 °C
- Kd (PI3Kβ): 0.4 nM
- Kd (kinase enzymes [3]): 525 nM
- Kd (kinase enzymes [4]): 49 nM
- Kd (kinase enzymes [5]): 25100 nM

SMILES: COC(=O)c1cc(C(C)Nc2cc(F)cc(F)c2)c2nc(N3CCOCC3)cnc2c1 (centres unmarked) [Compound 80]
- Kd (PI3Kδ): 7590 nM
- IC50 [1]: ~214 nM
- IC50 [2]: ~79 nM
- melting point: 244 °C
- Kd (PI3Kβ): 50 nM
- Kd (kinase enzymes [3]): 24500 nM
- Kd (kinase enzymes [4]): > 30200 nM
- Kd (kinase enzymes [5]): > 30200 nM

SMILES: CC(Nc1cc(F)c(F)c(F)c1)c1cc(C(=O)NC[C@@H](C)O)cc2ncc(N3CCOCC3)nc12 (single isomer, unassigned) [Compound 284a]
- Kd (PI3Kδ): 939 nM
- IC50 [1]: 90 nM
- IC50 [2]: 61 nM
- melting point: 113 °C
- Kd (PI3Kβ): 10 nM
- Kd (kinase enzymes [3]): 8140 nM
- Kd (kinase enzymes [4]): 2080 nM
- Kd (kinase enzymes [5]): 19100 nM

SMILES: CNCCOCCN(C)C(=O)c1cc(C(C)Nc2cc(F)c(F)c(F)c2)c2nc(N3CCOCC3)cnc2c1 (single isomer, unassigned) [Compound 315a]
- Kd (PI3Kδ): > 30200 nM
- IC50 ([1]; Homo sapiens, PC-3, 1 h): 195 nM
- IC50 [2]: > 20.4 nM
- melting point: 86 °C
- Kd (PI3Kβ): 2240 nM
- Kd (kinase enzymes [3]): > 30200 nM
- Kd (kinase enzymes [4]): > 30200 nM
- Kd (kinase enzymes [5]): > 30200 nM

SMILES: CC(c1cc(C(=O)N2CCOCC2)cc2ncc(N3CCOCC3)nc12)N(C)c1cccc(F)c1 (centres unmarked) [Compound 105]
- Kd (PI3Kδ): 871 nM
- IC50 ([1]; Homo sapiens, PC-3, 1 h): 302 nM
- IC50 ([2]; Homo sapiens, PC-3, 1 h): 138 nM
- melting point: 161 °C
- Kd (PI3Kβ): 8 nM
- Kd (kinase enzymes [3]): 28200 nM
- Kd (kinase enzymes [4]): 3890 nM
- Kd (kinase enzymes [5]): > 30200 nM

SMILES: COc1cc(NC(C)c2cc(C(=O)N3CCOCC3)cc3ncc(N4CCOCC4)nc23)cc(OC)c1 (centres unmarked) [Compound 134]
- Kd (PI3Kδ): 6310 nM
- IC50 ([1]; Homo sapiens, PC-3, 1 h): > 513 nM
- IC50 ([2]; Homo sapiens, PC-3, 1 h): > 513 nM
- melting point: 80 °C
- Kd (PI3Kβ): 87 nM
- Kd (kinase enzymes [3]): > 30200 nM
- Kd (kinase enzymes [4]): > 30200 nM
- Kd (kinase enzymes [5]): > 30200 nM

SMILES: CC(Nc1cc(F)cc(F)c1)c1cc(CN2CCn3nccc3C2)cc2ncc(N3CCOCC3)nc12 (single isomer, unassigned) [Compound 210]
- Kd (PI3Kδ): 1020 nM
- IC50 [1]: 245 nM
- IC50 [2]: 151 nM
- melting point: 80 °C
- Kd (PI3Kβ): 12 nM
- Kd (kinase enzymes [3]): > 30200 nM
- Kd (kinase enzymes [4]): 3160 nM
- Kd (kinase enzymes [5]): > 30200 nM

SMILES: CNCCNC(=O)c1cc(C(C)Nc2cccc(F)c2)c2nc(N3CCOCC3)cnc2c1 (centres unmarked) [Compound 282]
- Kd (PI3Kδ): 68 nM
- IC50 ([1]; Homo sapiens, PC-3, 1 h): 7 nM
- IC50 ([2]; Homo sapiens, PC-3, 1 h): 6 nM
- melting point: 100 °C
- Kd (PI3Kβ): 0.2 nM
- Kd (kinase enzymes [3]): 1820 nM
- Kd (kinase enzymes [4]): 832 nM
- Kd (kinase enzymes [5]): 23400 nM

SMILES: CC(Nc1cc(F)c(F)c(F)c1)c1cc(C(=O)NC[C@@H](C)O)cc2ncc(N3CCOCC3)nc12 (single isomer, unassigned) [Compound 284b]
- Kd (PI3Kδ): > 30200 nM
- IC50 [1]: > 513 nM
- IC50 [2]: > 513 nM
- melting point: 112 °C
- Kd (PI3Kβ): 2150 nM
- Kd (kinase enzymes [3]): 5070 nM
- Kd (kinase enzymes [4]): > 30200 nM
- Kd (kinase enzymes [5]): > 30200 nM

SMILES: CC(Nc1cc(F)cc(F)c1)c1cc(CN2CCn3nccc3C2)cc2ncc(N3CCOCC3)nc12 (single isomer, unassigned) [Compound 222]
- Kd (PI3Kδ): > 30200 nM
- IC50 [1]: > 513 nM
- IC50 [2]: > 513 nM
- melting point: 163 °C
- Kd (PI3Kβ): 759 nM
- Kd (kinase enzymes [3]): > 30200 nM
- Kd (kinase enzymes [4]): > 30200 nM
- Kd (kinase enzymes [5]): > 30200 nM

SMILES: OCc1cc(C2CCCN2c2cc(F)cc(F)c2)c2nc(N3CCOCC3)cnc2c1 (centres unmarked) [Compound 10]
- Kd (PI3Kδ): 74 nM
- IC50 ([1]; Homo sapiens, PC-3, 1 h): 4 nM
- IC50 ([2]; Homo sapiens, PC-3, 1 h): 3 nM
- melting point: 189 °C
- Kd (PI3Kβ): 0.5 nM
- Kd (kinase enzymes [3]): 336 nM
- Kd (kinase enzymes [4]): 142 nM
- Kd (kinase enzymes [5]): > 30200 nM

SMILES: CC(Nc1cc(F)c(F)c(F)c1)c1cc(C(=O)NCC(C)(C)O)cc2ncc(N3CCOCC3)nc12 (centres unmarked) [Compound 292]
- Kd (PI3Kδ): 1700 nM
- IC50 ([1]; Homo sapiens, PC-3, 1 h): 437 nM
- IC50 ([2]; Homo sapiens, PC-3, 1 h): 234 nM
- melting point: 80 °C
- Kd (PI3Kβ): 16 nM
- Kd (kinase enzymes [3]): 27500 nM
- Kd (kinase enzymes [4]): 6610 nM
- Kd (kinase enzymes [5]): > 30200 nM
